Results on five compounds are retold here after paper PMC11410943 (Nature Communications, 2024).

In brackets after ≈: the same amount, converted by molar mass.

The test system of one assay is Neisseria gonorrhoeae. The experiment in a line: MIC. To be noted: IHMA/CARB-X isolates 1997 to 2021, N=90.
The next assay deals with E. coli topoisomerase IV (Escherichia coli, UniProt P0AFI2). Briefly: E. coli topoisomerase IV decatenation inhibition. The assay is classed as biochemical.
Assay [1] relates to MDR Gram-negative and Gram-positive pathogens. The experiment in a line: MIC.
The next assay addresses E. coli gyrase (Escherichia coli, UniProt P0AES4). The experiment in a line: E. coli gyrase supercoiling inhibition. The format is biochemical.
Another assay concerns the target hERG K+ channel (Homo sapiens, UniProt Q12809). Briefly: hERG automated patch-clamp. The assay is classed as cell-based.

Sequence of E. coli topoisomerase IV (P0AFI2 whole entry): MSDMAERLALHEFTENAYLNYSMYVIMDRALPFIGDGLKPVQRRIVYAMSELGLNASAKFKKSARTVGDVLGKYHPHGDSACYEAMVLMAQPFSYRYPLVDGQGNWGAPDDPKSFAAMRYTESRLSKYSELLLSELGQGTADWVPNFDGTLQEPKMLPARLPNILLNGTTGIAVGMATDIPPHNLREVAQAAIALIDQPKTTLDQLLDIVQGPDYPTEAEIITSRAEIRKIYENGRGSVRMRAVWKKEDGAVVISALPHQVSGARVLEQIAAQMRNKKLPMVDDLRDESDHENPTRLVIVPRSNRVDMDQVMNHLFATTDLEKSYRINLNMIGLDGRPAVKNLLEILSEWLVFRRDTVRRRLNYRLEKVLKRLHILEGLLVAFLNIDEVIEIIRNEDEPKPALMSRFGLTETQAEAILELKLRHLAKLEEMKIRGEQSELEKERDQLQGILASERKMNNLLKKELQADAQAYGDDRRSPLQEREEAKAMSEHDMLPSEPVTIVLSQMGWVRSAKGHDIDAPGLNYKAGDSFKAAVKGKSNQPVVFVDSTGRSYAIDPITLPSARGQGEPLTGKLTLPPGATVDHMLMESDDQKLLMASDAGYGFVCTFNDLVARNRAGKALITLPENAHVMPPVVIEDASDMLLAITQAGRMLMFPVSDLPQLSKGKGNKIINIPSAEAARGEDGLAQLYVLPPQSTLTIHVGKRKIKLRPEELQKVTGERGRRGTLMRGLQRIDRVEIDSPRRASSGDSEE
Sequence of E. coli topoisomerase IV (P20083 whole entry partner): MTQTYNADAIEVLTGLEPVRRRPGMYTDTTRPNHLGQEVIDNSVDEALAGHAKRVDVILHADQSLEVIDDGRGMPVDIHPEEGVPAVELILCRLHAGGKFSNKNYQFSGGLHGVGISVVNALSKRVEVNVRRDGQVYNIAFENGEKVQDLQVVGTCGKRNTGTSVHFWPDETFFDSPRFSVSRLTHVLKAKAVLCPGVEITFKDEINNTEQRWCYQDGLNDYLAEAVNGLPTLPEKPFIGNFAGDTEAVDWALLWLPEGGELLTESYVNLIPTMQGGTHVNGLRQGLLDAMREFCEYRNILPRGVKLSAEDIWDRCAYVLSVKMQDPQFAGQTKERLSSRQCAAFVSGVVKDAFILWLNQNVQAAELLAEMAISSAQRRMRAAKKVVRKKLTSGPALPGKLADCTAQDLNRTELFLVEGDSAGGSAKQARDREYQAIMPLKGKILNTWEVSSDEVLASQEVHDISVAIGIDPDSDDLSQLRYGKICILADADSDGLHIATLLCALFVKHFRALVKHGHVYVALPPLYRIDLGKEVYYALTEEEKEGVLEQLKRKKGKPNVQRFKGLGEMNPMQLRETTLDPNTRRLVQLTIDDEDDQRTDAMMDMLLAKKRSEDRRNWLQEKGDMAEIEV
Sequence of E. coli gyrase (P0AES4 whole entry): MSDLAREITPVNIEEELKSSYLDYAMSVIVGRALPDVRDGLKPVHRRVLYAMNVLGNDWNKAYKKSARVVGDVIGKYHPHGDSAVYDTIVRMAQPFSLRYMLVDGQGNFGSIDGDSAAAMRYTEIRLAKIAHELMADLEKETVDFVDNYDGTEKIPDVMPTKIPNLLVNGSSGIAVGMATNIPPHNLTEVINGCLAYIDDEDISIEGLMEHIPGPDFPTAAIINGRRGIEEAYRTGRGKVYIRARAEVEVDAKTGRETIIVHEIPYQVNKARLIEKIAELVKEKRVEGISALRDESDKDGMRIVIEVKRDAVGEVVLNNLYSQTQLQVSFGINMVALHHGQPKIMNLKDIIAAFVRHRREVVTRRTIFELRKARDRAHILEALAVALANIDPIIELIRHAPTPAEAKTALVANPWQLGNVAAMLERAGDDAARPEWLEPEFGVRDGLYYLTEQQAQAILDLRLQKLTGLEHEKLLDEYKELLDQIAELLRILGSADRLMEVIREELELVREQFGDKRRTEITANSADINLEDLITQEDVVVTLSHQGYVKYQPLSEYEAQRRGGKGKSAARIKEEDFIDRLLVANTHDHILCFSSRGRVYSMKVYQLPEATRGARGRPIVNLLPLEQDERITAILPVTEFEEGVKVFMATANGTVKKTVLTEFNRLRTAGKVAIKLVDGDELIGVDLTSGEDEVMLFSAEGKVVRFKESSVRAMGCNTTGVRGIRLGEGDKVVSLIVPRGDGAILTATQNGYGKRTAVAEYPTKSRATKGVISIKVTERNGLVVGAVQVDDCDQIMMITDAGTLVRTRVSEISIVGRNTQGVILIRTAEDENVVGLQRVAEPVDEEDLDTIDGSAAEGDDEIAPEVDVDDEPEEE
Sequence of hERG K+ channel (Q12809 whole entry): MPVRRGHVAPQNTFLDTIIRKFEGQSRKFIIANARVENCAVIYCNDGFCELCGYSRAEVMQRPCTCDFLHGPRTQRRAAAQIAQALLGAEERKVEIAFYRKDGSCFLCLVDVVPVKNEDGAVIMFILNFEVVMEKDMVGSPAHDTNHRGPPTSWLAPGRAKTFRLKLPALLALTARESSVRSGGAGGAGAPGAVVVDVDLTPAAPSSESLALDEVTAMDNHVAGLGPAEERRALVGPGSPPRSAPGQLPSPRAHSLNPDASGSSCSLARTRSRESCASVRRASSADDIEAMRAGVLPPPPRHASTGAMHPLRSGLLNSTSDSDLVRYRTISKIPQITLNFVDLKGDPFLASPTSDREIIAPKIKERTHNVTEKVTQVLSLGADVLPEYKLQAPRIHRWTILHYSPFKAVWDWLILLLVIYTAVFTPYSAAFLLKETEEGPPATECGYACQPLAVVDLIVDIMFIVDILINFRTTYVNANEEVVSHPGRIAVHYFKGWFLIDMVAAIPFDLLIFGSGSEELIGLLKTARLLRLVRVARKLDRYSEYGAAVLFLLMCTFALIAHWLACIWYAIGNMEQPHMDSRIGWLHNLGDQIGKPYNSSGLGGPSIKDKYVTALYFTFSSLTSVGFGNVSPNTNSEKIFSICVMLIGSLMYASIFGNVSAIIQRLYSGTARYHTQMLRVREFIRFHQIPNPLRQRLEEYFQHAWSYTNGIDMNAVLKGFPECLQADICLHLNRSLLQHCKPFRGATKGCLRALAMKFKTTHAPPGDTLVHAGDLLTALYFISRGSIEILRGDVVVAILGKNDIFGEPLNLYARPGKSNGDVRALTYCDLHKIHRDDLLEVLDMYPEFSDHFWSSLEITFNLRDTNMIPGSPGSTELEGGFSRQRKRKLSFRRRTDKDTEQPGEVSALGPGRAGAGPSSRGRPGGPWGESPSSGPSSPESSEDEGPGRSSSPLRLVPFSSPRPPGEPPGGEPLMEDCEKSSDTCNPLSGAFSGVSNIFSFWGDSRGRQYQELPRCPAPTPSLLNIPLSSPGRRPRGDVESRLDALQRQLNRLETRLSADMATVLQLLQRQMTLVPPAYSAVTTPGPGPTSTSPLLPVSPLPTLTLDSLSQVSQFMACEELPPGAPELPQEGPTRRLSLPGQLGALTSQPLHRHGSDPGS

What is called MIC90 is an inhibitory concentration at the 90% level, which refers to growth in some studies and to a panel of isolates in others. Read a high MIC90 as weaker potency. `CO/N=C(\C(=O)N[C@@H]1C(=O)N2C(C(=O)O)=C(CSc3nc(=O)c(=O)[nH]n3C)CS[C@H]12)c1csc(N)n1` [Ceftriaxone] showed an MIC90 in the assay with Neisseria gonorrhoeae of 0.06 µg/mL (≈ 0.108 µM).

What is called IC50 is the point on the concentration scale where inhibition reaches its midpoint. As usually defined, the MIC is the least concentration at which growth counts as inhibited. The low end stands for inhibition by little substance, the high end for a need for much substance. With `NCCCC1CN(c2ccc3c(n2)NC(=O)CO3)C(=O)O1` (stereo not drawn) [Compound 1, 6-[5-(3-Aminopropyl)−2-oxo-3-oxazolidinyl]−2H-pyrido[3,2-b]−1,4-oxazin-3(4H)-one], the IC50 stood at 27 µM against E. coli topoisomerase IV and 13.2 µM at E. coli gyrase. In assay [1], this compound came in with an MIC of 80 to 160 µg/mL (≈ 274 to 547 µM).

Take `CN1C(=O)Cc2ccc(F)c(CCNCC[C@H]3CN(c4ccc5c(n4)NC(=O)CO5)C(=O)O3)c21` [Compound 3, 6-[(5S)−5-[2-[[2-(6-fluoro-2,3-dihydro-1-methyl-2-oxo-1H-indol-7-yl)ethyl]amino]ethyl]−2-oxo-3-oxazolidinyl]−2H-pyrido[3,2-b]−1,4-oxazin-3(4H)-one]: on E. coli topoisomerase IV, the IC50 turned out to be 0.36 µM. Moreover, on E. coli gyrase, the “improvement in gyrase supercoiling and topoIV decatenation IC50 over compound 1” value is recorded as above 100 fold.

As to `CN1C(=O)Cc2ccc(F)c(CCNC[C@H]3CN(c4ccc5c(n4)NC(=O)CO5)C(=O)O3)c21` [Compound 4, (S)−6-(5-(((2-(6-fluoro-1-methyl-2-oxoindolin-7-yl)ethyl)amino)methyl)−2-oxooxazolidin-3-yl)−2H-pyrido[3,2-b] [1,4] oxazin-3(4H)-one], the IC50 came to 0.057 µM against E. coli topoisomerase IV and 0.036 µM against E. coli gyrase.

For `Cn1c(=O)ccc2ccc(F)c(CCNC[C@@H]3CN(c4cnc5c(n4)NC(=O)CO5)C(=O)O3)c21` [Compound 8, 6-[(5 R)−5-[[[2-(7-Fluoro-1,2-dihydro-1-methyl-2-oxo-8-quinolinyl)ethyl]amino]methyl]−2-oxo-3-oxazolidinyl]−2H-pyrazino[2,3-b]−1,4-oxazin-3(4H)-one], the IC50 at hERG K+ channel was 60 µM.
